From PubChem BioAssay AID1259408 (Genetic Toxicology Data Bank (GENE-TOX), 2018)
Active and inactive are the calls of the source. How the calls were made is not given here.

Tested on: GENE-TOX genotoxicity assays, various organisms and cells
Test: GENE-TOX mutagenicity studies
Settings: for call: Assay Type: In vivo carcinogenicity studies, Assay Code: CCG+
[1] = Species/Cell Type: Mouse, Sex: Male, Assay Type: Sperm morphology, Assay Code: SPI-, Evaluation Type: Evaluation A (Pre-1980)
[2] = Species/Cell Type: Salmonella typhimurium (one or more of the five standard strains: TA98, TA100, TA1535, TA1537, and TA1538), Assay Type: Histidine reverse gene mutation, Ames assay, Assay Code: SAL+, Evaluation Type: Evaluation A (Pre-1980)
[3] = Species/Cell Type: Nonhuman, Evaluation Type: Evaluation A (Pre-1980)
[4] = Species/Cell Type: Salmonella typhimurium (one or more of the five standard strains: TA98, TA100, TA1535, TA1537, and TA1538), Assay Type: Histidine reverse gene mutation, Ames assay, Assay Code: SAL-, Evaluation Type: Evaluation A (Pre-1980)

For `CC[n+]1c(-c2ccccc2)c2cc(N)ccc2c2ccc(N)cc21`, the mutagenic call (Species/Cell Type: Chinese hamster ovary (CHO) cells, Assay Type: Forward gene mutation at the HPRT locus, Assay Code: CHO+, Evaluation Type: Evaluation B (Post-1980)) was “active; positive”, the mutagenic call (Species/Cell Type: Escherichia coli polA (W3119 vs P3478), Assay Type: Rec-assay, DNA effects (bacterial DNA repair), Assay Code: RE1+, Evaluation Type: Evaluation A (Pre-1980)) was “active; positive” and the mutagenic call (Species/Cell Type: Mammalian cell culture, nonhuman, Assay Type: Micronucleus test in vitro, chromosome aberrations, Assay Code: MN&+, Evaluation Type: Evaluation A (Pre-1980)) was “active; positive”. The mutagenic call (Species/Cell Type: Mammalian germ cells, Sex: Male, Assay Type: Chromosome aberrations in vivo, Assay Code: CY9T, Evaluation Type: Evaluation A (Pre-1980)) was “no conclusion”, the mutagenic call [1] was “inactive; negative” and the mutagenic call (Species/Cell Type: Saccharomyces cerevisiae, Assay Type: Mitotic recombination or gene conversion, Assay Code: YEC-, Evaluation Type: Evaluation A (Pre-1980)) was “inactive; negative”. For the same compound, the mutagenic call (Species/Cell Type: Saccharomyces cerevisiae, Assay Type: Mitotic recombination or gene conversion, Assay Code: YEH-, Evaluation Type: Evaluation A (Pre-1980)) was “inactive; negative”, the mutagenic call (Species/Cell Type: Saccharomyces cerevisiae, Assay Type: Reverse gene mutation, Assay Code: YER-, Evaluation Type: Evaluation A (Pre-1980)) was “inactive; negative” and the mutagenic call [2] was “active; positive”. The mutagenic call (Species/Cell Type: Syrian hamster embryo (SA7/SHE) cells, Assay Type: Cell transformation, viral enhanced, Assay Code: CT7-, Evaluation Type: Evaluation A (Pre-1980)) was “inactive; negative”.

For `O=[N+]([O-])c1ccc(N=Nc2ccccc2)cc1`, the mutagenic call [2] was “active; positive”.

In the case of `OCc1c2ccccc2c2ccc3cccc4ccc1c2c43`, the mutagenic call (Species/Cell Type: Chinese hamster lung (V79) cells, Assay Type: Forward gene mutation at the HPRT or ouabain locus, Assay Code: V79+*, Activation: With metabolic activation, Evaluation Type: Evaluation A (Pre-1980)) is reported as “active; positive”, the mutagenic call (Species/Cell Type: Drosophila melanogaster, Assay Type: Sex-linked recessive lethal gene mutation, Assay Code: SRL+, Evaluation Type: Evaluation A (Pre-1980)) is reported as “active; positive” and the call [3] is reported as “active; positive”. The mutagenic call (Species/Cell Type: Salmonella typhimurium (one or more of the five standard strains: TA98, TA100, TA1535, TA1537, and TA1538), Assay Type: Histidine reverse gene mutation, Ames assay, Assay Code: SAL+*, Activation: With metabolic activation, Evaluation Type: Evaluation A (Pre-1980)) was “active; positive”.

In the case of `COC(=O)COc1ccc(Cl)cc1C`, the mutagenic call (Species/Cell Type: Saccharomyces cerevisiae, Assay Type: Reverse gene mutation, Assay Code: YER+, Evaluation Type: Evaluation A (Pre-1980)) is reported as “active; positive”.

In the case of `CCNCCNc1ccc(CO)c2sc3ccccc3c(=O)c12`, the mutagenic call (Species/Cell Type: Fischer rat embryo (RLV/1706) cells, Assay Type: Cell transformation, viral enhanced, Assay Code: CTR+, Evaluation Type: Evaluation A (Pre-1980)) is reported as “active; positive”.

With `OCC1COCO1` (centres undefined) the mutagenic call (Species/Cell Type: Mammalian polychromatic erythrocytes, Assay Type: Micronucleus test, chromosome aberrations, Assay Code: MNT-, Evaluation Type: Evaluation B (Post-1980)) was “inactive; negative”.

`Cc1cc(-c2cc(C)c(N)c(C)c2)cc(C)c1N` was tested, and the mutagenic call (Species/Cell Type: Human diploid fibroblasts, Assay Type: Unscheduled DNA synthesis (UDS) in vitro, DNA effects, Assay Code: UDH-*, Activation: With metabolic activation, Evaluation Type: Evaluation A (Pre-1980)) was “inactive; negative”, the mutagenic call (Species/Cell Type: Human, Assay Type: Sister-chromatid exchange (SCE) in vitro, Assay Code: SC1-, Evaluation Type: Evaluation B (Post-1980)) was “inactive; negative” and the mutagenic call (Species/Cell Type: Mammalian polychromatic erythrocytes, Assay Type: Micronucleus test, chromosome aberrations, Assay Code: MNT+, Evaluation Type: Evaluation A (Pre-1980)) was “active; positive”. For the same compound, the mutagenic call [1] was “inactive; negative”, the mutagenic call (Species/Cell Type: Nonhuman, Assay Type: Sister-chromatid exchange (SCE) in vitro, Assay Code: SC2+, Evaluation Type: Evaluation B (Post-1980)) was “active; positive” and the mutagenic call (Species/Cell Type: Nonhuman, Assay Type: Sister-chromatid exchange (SCE) in vivo, Assay Code: SC3T, Evaluation Type: Evaluation B (Post-1980)) was “no conclusion”. For the same compound, the mutagenic call [4] was “inactive; negative” and the mutagenic call (Species/Cell Type: Tradescantia species, Assay Type: Gene mutation, Assay Code: TRM+D, Dose Response: With dose response, Evaluation Type: Evaluation A (Pre-1980)) was “active; positive”.

In the case of `Cc1ccc(N)c(N)c1`, the mutagenic call (Species/Cell Type: Mammalian polychromatic erythrocytes, Assay Type: Micronucleus test, chromosome aberrations, Assay Code: MNT+, Evaluation Type: Evaluation B (Post-1980)) is reported as “active; positive”.

In the case of `C=CC(O)c1ccc2c(c1)OCO2` (centres undefined), the mutagenic call (Species/Cell Type: Drosophila melanogaster, Assay Type: Sex-linked recessive lethal gene mutation, Assay Code: SRLT, Evaluation Type: Evaluation A (Pre-1980)) is reported as “no conclusion”, the mutagenic call (Species/Cell Type: Escherichia coli polA (W3119 vs P3478), Assay Type: Rec-assay, DNA effects (bacterial DNA repair), Assay Code: RE1-, Evaluation Type: Evaluation A (Pre-1980)) is reported as “inactive; negative” and the mutagenic call (Species/Cell Type: Human diploid fibroblasts, Assay Type: Unscheduled DNA synthesis (UDS) in vitro, DNA effects, Assay Code: UDH+, Evaluation Type: Evaluation A (Pre-1980)) is reported as “active; positive”. For the same compound, the call [3] was “active; positive”, the mutagenic call (Species/Cell Type: Saccharomyces cerevisiae, Assay Type: Mitotic recombination or gene conversion, Assay Code: YEH+/-*, Activation: With metabolic activation, Evaluation Type: Evaluation A (Pre-1980)) was “inactive; positive without activation, negative with activation” and the mutagenic call [4] was “inactive; negative”.

`O=c1[nH]cc(I)c(=O)[nH]1` was tested, and the mutagenic call (Species/Cell Type: Vicia faba, Assay Type: Chromosome aberrations, Assay Code: VIC+, Evaluation Type: Evaluation A (Pre-1980)) was “active; positive”.
